Numbers after ± are expanded uncertainties.
Columns and labels:
[1] = refractive index (Na D-line) (dimensionless); xn = mol fraction of the nth substance listed; details: 100 kPa, Liquid, Standard Abbe refractometry, x1 = 0.25
[2] = xn = mol fraction of the nth substance listed; details: 100 kPa, Liquid, x1 = 0.25; for electrical conductivity: Alternating current cell with electrodes; for speed of sound: Single path-length method; for mass density: Vibrating tube method; for viscosity: Falling or rolling sphere viscometry

SMILES: C[N+](C)(C)Cc1ccccc1.[Cl-] [trimethylbenzylammonium chloride] + OCC(O)CO
- refractive index ([1]; 283.15 K): 1.5126 ± 0.0011
- refractive index ([1]; 288.15 K): 1.5114 ± 0.0011
- refractive index ([1]; 293.15 K): 1.5102 ± 0.0011
- refractive index ([1]; 298.15 K): 1.5089 ± 0.0011
- refractive index ([1]; 303.15 K): 1.5078 ± 0.0011
- refractive index ([1]; 308.15 K): 1.5064 ± 0.0011
- refractive index ([1]; 313.15 K): 1.5052 ± 0.0011
- refractive index ([1]; 318.15 K): 1.5039 ± 0.0011
- refractive index ([1]; 323.15 K): 1.5027 ± 0.0011
- refractive index ([1]; 328.15 K): 1.5014 ± 0.0011
- refractive index ([1]; 333.15 K): 1.5002 ± 0.0011
- refractive index ([1]; 338.15 K): 1.4989 ± 0.0011
- refractive index ([1]; 343.15 K): 1.4977 ± 0.0011
- electrical conductivity ([2]; 283.15 K): 0.012 ± 0.001 S/m
- speed of sound ([2]; 283.15 K): 1992.6 ± 4.1 m/s
- mass density ([2]; 283.15 K): 1190.87 ± 12 kg/m3
- electrical conductivity ([2]; 288.15 K): 0.019 ± 0.001 S/m
- viscosity ([2]; 288.15 K): 1874.9 ± 230 mPa·s
- speed of sound ([2]; 288.15 K): 1970.8 ± 4 m/s
- mass density ([2]; 288.15 K): 1187.92 ± 12 kg/m3
- electrical conductivity ([2]; 293.15 K): 0.027 ± 0.001 S/m
- viscosity ([2]; 293.15 K): 1170.9 ± 120 mPa·s
- speed of sound ([2]; 293.15 K): 1953 ± 4 m/s
- mass density ([2]; 293.15 K): 1184.97 ± 12 kg/m3
- electrical conductivity ([2]; 298.15 K): 0.039 ± 0.002 S/m
- viscosity ([2]; 298.15 K): 753.5 ± 69 mPa·s
- speed of sound ([2]; 298.15 K): 1937.6 ± 4 m/s
- mass density ([2]; 298.15 K): 1182.02 ± 12 kg/m3
- electrical conductivity ([2]; 303.15 K): 0.055 ± 0.002 S/m
- viscosity ([2]; 303.15 K): 501.5 ± 39 mPa·s
- speed of sound ([2]; 303.15 K): 1923.4 ± 4 m/s
- mass density ([2]; 303.15 K): 1178.99 ± 12 kg/m3
- electrical conductivity ([2]; 308.15 K): 0.077 ± 0.003 S/m
- viscosity ([2]; 308.15 K): 342.7 ± 22 mPa·s
- speed of sound ([2]; 308.15 K): 1910.1 ± 3.9 m/s
- mass density ([2]; 308.15 K): 1176.07 ± 12 kg/m3
- electrical conductivity ([2]; 313.15 K): 0.104 ± 0.004 S/m
- viscosity ([2]; 313.15 K): 238.3 ± 13 mPa·s
- speed of sound ([2]; 313.15 K): 1897.2 ± 3.9 m/s
- mass density ([2]; 313.15 K): 1173.14 ± 12 kg/m3
- electrical conductivity ([2]; 318.15 K): 0.138 ± 0.006 S/m
- viscosity ([2]; 318.15 K): 171.8 ± 7.4 mPa·s
- speed of sound ([2]; 318.15 K): 1884.6 ± 3.9 m/s
- mass density ([2]; 318.15 K): 1170.19 ± 12 kg/m3
- electrical conductivity ([2]; 323.15 K): 0.181 ± 0.007 S/m
- viscosity ([2]; 323.15 K): 126.7 ± 4.5 mPa·s
- speed of sound ([2]; 323.15 K): 1872.3 ± 3.9 m/s
- mass density ([2]; 323.15 K): 1167.23 ± 12 kg/m3
- electrical conductivity ([2]; 328.15 K): 0.231 ± 0.009 S/m
- viscosity ([2]; 328.15 K): 95.4 ± 2.7 mPa·s
- speed of sound ([2]; 328.15 K): 1860 ± 3.8 m/s
- mass density ([2]; 328.15 K): 1164.25 ± 12 kg/m3
- electrical conductivity ([2]; 333.15 K): 0.283 ± 0.011 S/m
- viscosity ([2]; 333.15 K): 73 ± 1.7 mPa·s
- speed of sound ([2]; 333.15 K): 1847.9 ± 3.8 m/s
- mass density ([2]; 333.15 K): 1161.27 ± 12 kg/m3
- electrical conductivity ([2]; 338.15 K): 0.34 ± 0.014 S/m
- viscosity ([2]; 338.15 K): 58.2 ± 1.2 mPa·s
- speed of sound ([2]; 338.15 K): 1835.8 ± 3.8 m/s
- mass density ([2]; 338.15 K): 1158.29 ± 12 kg/m3
- electrical conductivity ([2]; 343.15 K): 0.413 ± 0.017 S/m
- viscosity ([2]; 343.15 K): 46.3 ± 1 mPa·s
- speed of sound ([2]; 343.15 K): 1824.2 ± 3.8 m/s
- mass density ([2]; 343.15 K): 1155.33 ± 12 kg/m3

SMILES: C[N+](C)(C)Cc1ccccc1.[Cl-] [trimethylbenzylammonium chloride] + OCCO
- refractive index ([1]; 283.15 K): 1.4995 ± 0.0011
- refractive index ([1]; 288.15 K): 1.498 ± 0.0011
- refractive index ([1]; 293.15 K): 1.4966 ± 0.0011
- refractive index ([1]; 298.15 K): 1.4951 ± 0.0011
- refractive index ([1]; 303.15 K): 1.4935 ± 0.0011
- refractive index ([1]; 308.15 K): 1.4921 ± 0.0011
- refractive index ([1]; 313.15 K): 1.4907 ± 0.0011
- refractive index ([1]; 318.15 K): 1.4893 ± 0.0011
- refractive index ([1]; 323.15 K): 1.4878 ± 0.0011
- refractive index ([1]; 328.15 K): 1.4864 ± 0.0011
- refractive index ([1]; 333.15 K): 1.4849 ± 0.0011
- refractive index ([1]; 338.15 K): 1.4835 ± 0.0011
- refractive index ([1]; 343.15 K): 1.482 ± 0.0011
- electrical conductivity ([2]; 283.15 K): 0.263 ± 0.011 S/m
- viscosity ([2]; 283.15 K): 101.9 ± 3.1 mPa·s
- speed of sound ([2]; 283.15 K): 1856.7 ± 3.9 m/s
- mass density ([2]; 283.15 K): 1110.06 ± 11 kg/m3
- electrical conductivity ([2]; 288.15 K): 0.32 ± 0.013 S/m
- viscosity ([2]; 288.15 K): 76.1 ± 1.9 mPa·s
- speed of sound ([2]; 288.15 K): 1843.6 ± 3.9 m/s
- mass density ([2]; 288.15 K): 1107 ± 11 kg/m3
- electrical conductivity ([2]; 293.15 K): 0.391 ± 0.016 S/m
- viscosity ([2]; 293.15 K): 58.2 ± 1.3 mPa·s
- speed of sound ([2]; 293.15 K): 1830.8 ± 3.9 m/s
- mass density ([2]; 293.15 K): 1103.95 ± 11 kg/m3
- electrical conductivity ([2]; 298.15 K): 0.461 ± 0.018 S/m
- viscosity ([2]; 298.15 K): 45.3 ± 1 mPa·s
- speed of sound ([2]; 298.15 K): 1818 ± 3.9 m/s
- mass density ([2]; 298.15 K): 1100.92 ± 11 kg/m3
- electrical conductivity ([2]; 303.15 K): 0.552 ± 0.022 S/m
- viscosity ([2]; 303.15 K): 35.9 ± 0.8 mPa·s
- speed of sound ([2]; 303.15 K): 1805.3 ± 3.8 m/s
- mass density ([2]; 303.15 K): 1097.89 ± 11 kg/m3
- electrical conductivity ([2]; 308.15 K): 0.643 ± 0.026 S/m
- viscosity ([2]; 308.15 K): 29 ± 0.6 mPa·s
- speed of sound ([2]; 308.15 K): 1792.7 ± 3.8 m/s
- mass density ([2]; 308.15 K): 1094.87 ± 11 kg/m3
- electrical conductivity ([2]; 313.15 K): 0.75 ± 0.03 S/m
- viscosity ([2]; 313.15 K): 23.9 ± 0.5 mPa·s
- speed of sound ([2]; 313.15 K): 1780.2 ± 3.8 m/s
- mass density ([2]; 313.15 K): 1091.85 ± 11 kg/m3
- electrical conductivity ([2]; 318.15 K): 0.872 ± 0.035 S/m
- viscosity ([2]; 318.15 K): 19.9 ± 0.4 mPa·s
- speed of sound ([2]; 318.15 K): 1767.8 ± 3.8 m/s
- mass density ([2]; 318.15 K): 1088.84 ± 11 kg/m3
- electrical conductivity ([2]; 323.15 K): 0.997 ± 0.04 S/m
- viscosity ([2]; 323.15 K): 16.8 ± 0.4 mPa·s
- speed of sound ([2]; 323.15 K): 1755.4 ± 3.7 m/s
- mass density ([2]; 323.15 K): 1085.83 ± 11 kg/m3
- electrical conductivity ([2]; 328.15 K): 1.12 ± 0.045 S/m
- viscosity ([2]; 328.15 K): 14.3 ± 0.3 mPa·s
- speed of sound ([2]; 328.15 K): 1743 ± 3.7 m/s
- mass density ([2]; 328.15 K): 1082.83 ± 11 kg/m3
- electrical conductivity ([2]; 333.15 K): 1.25 ± 0.05 S/m
- viscosity ([2]; 333.15 K): 12.3 ± 0.3 mPa·s
- speed of sound ([2]; 333.15 K): 1730.7 ± 3.7 m/s
- mass density ([2]; 333.15 K): 1079.82 ± 11 kg/m3
- electrical conductivity ([2]; 338.15 K): 1.41 ± 0.056 S/m
- viscosity ([2]; 338.15 K): 10.7 ± 0.2 mPa·s
- speed of sound ([2]; 338.15 K): 1718.5 ± 3.7 m/s
- mass density ([2]; 338.15 K): 1076.82 ± 11 kg/m3
- electrical conductivity ([2]; 343.15 K): 1.56 ± 0.063 S/m
- viscosity ([2]; 343.15 K): 9.5 ± 0.2 mPa·s
- speed of sound ([2]; 343.15 K): 1706.6 ± 3.6 m/s
- mass density ([2]; 343.15 K): 1073.83 ± 11 kg/m3

Reference: the NIST ThermoML archive (doi:10.1021/acs.jced.8b00213)
